For the assay, the target named is catalytic domain of human PARP14 (Homo sapiens (Human), UniProt Q460N5). The assay can be described thus: Enzymatic assay for inhibition of PARP14 (DELFIA, auto-modification with biotin-NAD). The assay is classed as biochemical. The following applies: auto-modification of PARP14 by biotin-NAD, 50 nM PARP14, 3 μM biotin-NAD. In short, it runs like this:
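His-TEV-tagged PARP14 catalytic domain (50 nM) preincubated with compound 30 min at 25 °C, then auto-modified with 3 μM biotin-NAD for 3 h at 25 °C in HEPES pH 8 buffer with DTT. IC50 from 4-parameter fit, rucaparib and DMSO as controls.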

Where a name gives a salt, the structure may show the parent alone.

Sequence of catalytic domain of human PARP14 (Q460N5 1611-1801): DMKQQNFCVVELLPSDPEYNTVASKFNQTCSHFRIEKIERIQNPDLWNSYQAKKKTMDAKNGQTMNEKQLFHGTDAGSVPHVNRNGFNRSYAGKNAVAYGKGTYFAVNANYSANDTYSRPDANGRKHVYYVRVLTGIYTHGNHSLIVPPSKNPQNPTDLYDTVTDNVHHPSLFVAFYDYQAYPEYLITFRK

In the case of `C[C@]1(O)CC[C@@H](SCc2nc3cc(OCC4CCOCC4)cc(F)c3c(=O)[nH]2)CC1` [Example 411], the half-inhibitory concentration (IC50) – broadly, the concentration that inhibits the measured activity by half – was less than 1 µM.

For `CNc1ccc2c(=O)[nH]c(CSC3CCOCC3)nc2c1` [Example 110, 7-(Methylamino)-2-(((tetrahydro-2H-pyran-4-yl)thio)methyl)quinazolin-4(3H)-one], the IC50 was 1 to 10 µM.

As to `CC(C)(C)CNc1cc2nc(CSC3CCOCC3)[nH]c(=O)c2c(F)c1F` [Example 384], the IC50 is less than 1 µM.

As for `O=c1[nH]c(CS[C@H]2CCNC[C@@H](F)C2)nc2cc(NC3CCCC3)cc(F)c12` (relative stereo) [Example 241, 7-(Cyclopentylamino)-5-fluoro-2-(((cis-6-fluoroazepan-4-yl)thio)methyl)quinazolin-4(3H)-one], the half-inhibitory concentration (IC50) is less than 1 µM.

The compound `O=c1[nH]c(CSC2CCOCC2)nc2cc(NC3CCNC3)ccc12` (stereo not shown) [Example 130, 7-(Pyrrolidin-3-ylamino)-2-(((tetrahydro-2H-pyran-4-yl)thio)methyl) quinazolin-4(3H)-one] yielded an IC50 of 1 to 10 µM.

`Cc1cccc2c(=O)[nH]c(CSC3CCN(CCN)CC3)nc12` [Example 163, 2-(((1-(2-Aminoethyl)piperidin-4-yl)thio)methyl)-8-methylquinazolin-4(3H)-one dihydrochloride] returned a 50% inhibitory concentration (IC50) of 1 to 10 µM.

As for `CS(=O)(=O)N1CC(Nc2ccc3c(=O)[nH]c(CSC4CCOCC4)nc3c2)C1` [Example 195, 7-((1-(methylsulfonyl)azetidin-3-yl)amino)-2-(((tetrahydro-2H-pyran-4-yl)thio)methyl)quinazolin-4(3H)-one], the concentration for half-maximal inhibition (IC50) is less than 1 µM.

Compound `CC(=O)N1CCC(COc2cc(F)c3c(=O)[nH]c(CS[C@H]4CC[C@](C)(O)CC4)nc3c2)CC1` [Example 409] came in with a half-maximal inhibitory concentration (IC50) of less than 1 µM.

With `N#Cc1ccc2c(=O)[nH]c(CSC3CCOCC3)nc2c1` [Example 1, 4-Oxo-2-(((tetrahydro-2H-pyran-4-yl)thio)methyl)-3,4-dihydroquinazoline-7-carbonitrile], the IC50 is greater than 10 µM.

Compound `O=c1[nH]c(CSC2CCOCC2)nc2cc(OCC3CCOC3)cc(Br)c12` (stereo not shown) [Example 376] showed a concentration for half-maximal inhibition (IC50) of less than 1 µM.

`O=c1[nH]c(CS[C@H]2CC[C@H](O)CC2)nc2cc(OCC3CCOC3)cc(F)c12` (stereo partly drawn) [Example 324, 5-Fluoro-2-((((trans)-4-hydroxycyclohexyl)thio)methyl)-7-((tetrahydrofuran-3-yl)methoxy)quinazolin-4(3H)-one]: the IC50 is less than 1 µM.

Compound `O=c1[nH]c(CSC2CCOCC2)nc2cc(OCc3ccccc3)ccc12` [Example 96, 7-(Benzyloxy)-2-(((tetrahydro-2H-pyran-4-yl)thio)methyl)quinazolin-4(3H)-one] displayed a concentration for half-maximal inhibition (IC50) of 1 to 10 µM.

For `Cc1cccc(CN2CCC(SCc3nc4c(C)cccc4c(=O)[nH]3)CC2)n1` [Example 145, 8-Methyl-2-(((1-((6-methylpyridin-2-yl)methyl)piperidin-4-yl)thio)methyl)quinazolin-4(3H)-one bistrifluoroacetate], the IC50 was less than 1 µM.

`Cc1cccc2c(=O)[nH]c(CSC3CCCC(N)CC3)nc12` (stereo not shown) [Example 53, 2-(((4-Aminocycloheptyl)thio)methyl)-8-methylquinazolin-4(3H)-one Trifluoroacetate] yielded a concentration for half-maximal inhibition (IC50) of less than 1 µM.

`Cc1cccc2c(=O)[nH]c(CSC3CCN(Cc4ccc5cnn(C)c5c4)CC3)nc12` [Example 148, 8-Methyl-2-(((1-((1-methyl-1H-indazol-6-yl)methyl)piperidin-4-yl)thio)methyl)quinazolin-4(3H)-one trifluoroacetate]: the half-maximal inhibitory concentration (IC50) was less than 1 µM.

`Cc1ccc(C(F)(F)F)c2c(=O)[nH]c(CSC3CCOCC3)nc12` [Example 35, 8-Methyl-2-(((tetrahydro-2H-pyran-4-yl)thio)methyl)-5-(trifluoromethyl)quinazolin-4(3H)-one] had an IC50 of less than 1 µM.

`CC1(SCc2nc3cc(OCC4CCOCC4)cc(F)c3c(=O)[nH]2)CCOCC1` [Example 358] came in with an IC50 of less than 1 µM.

`CO[C@H]1CC[C@H](Nc2cc3nc(CS[C@H]4CC[C@H](O)CC4)[nH]c(=O)c3c(F)c2F)CC1` [Example 377]: the IC50 is less than 1 µM.

Compound `Cc1cccc2c(=O)[nH]c(CSC3CCN(C(=O)[C@H](N)CCCNC(=N)N)CC3)nc12` [Example 169, (R)-1-(4-Amino-5-(4-(((8-methyl-4-oxo-3,4-dihydroquinazolin-2-yl)methyl)thio)piperidin-1-yl)-5-oxopentyl)guanidine Trihydrochloride] returned a half-inhibitory concentration (IC50) of less than 1 µM.

The compound `N#Cc1cccc2c(=O)[nH]c(CSC3CCOCC3)nc12` [Example 28, 4-Oxo-2-(((tetrahydro-2H-pyran-4-yl)thio)methyl)-3,4-dihydroquinazoline-8-carbonitrile] yielded an IC50 greater than 10 µM.

For `Cc1cccc2c(=O)[nH]c(CSC3CCN(Cc4ccc5c(c4)OCCN5C)CC3)nc12` [Example 158, 8-Methyl-2-(((1-((4-methyl-3,4-dihydro-2H-benzo[b][1,4]oxazin-7-yl)methyl)piperidin-4-yl)thio)methyl)quinazolin-4(3H)-one trifluoroacetate], the concentration for half-maximal inhibition (IC50) was in the range of 1 to 10 µM.

`COC(C)(C)CNc1cc2nc(CSC3CCOCC3)[nH]c(=O)c2c(F)c1F` [Example 407] had an IC50 of 1 to 10 µM.

The compound `O=c1[nH]c(CSC2CCOCC2)nc2cc(Cc3ccccc3)ccc12` [Example 11] showed an IC50 greater than 10 µM.

`O=c1[nH]c(CSC2CCOCC2)nc2cc(NC3CCN(Cc4ccccc4)CC3)ccc12` [Example 128, 7-((1-Benzylpiperidin-4-yl)amino)-2-(((tetrahydro-2H-pyran-4-yl)thio)methyl) quinazolin-4(3H)-one] had a concentration for half-maximal inhibition (IC50) of 1 to 10 µM.

Regarding `CN(C)c1ccc2c(=O)[nH]c(CSC3CCOCC3)nc2c1` [Example 109, 7-(Dimethylamino)-2-(((tetrahydro-2H-pyran-4-yl)thio)methyl)quinazolin-4(3H)-one], the IC50 is 1 to 10 µM.

Turning to `Cc1cccc2c(=O)[nH]c(CSC3CCN(CCCN)CC3)nc12` [Example 165, 2-(((1-(3-Aminopropyl)piperidin-4-yl)thio)methyl)-8-methylquinazolin-4(3H)-one dihydrochloride], the IC50 was less than 1 µM.

In turn, `O=c1[nH]c(CSC2CCOCC2)nc2cc(NC3CCCCC3(F)F)cc(F)c12` (stereo not shown) [Example 345] yielded a concentration for half-maximal inhibition (IC50) of less than 1 µM.

`Cc1cccc2c(=O)[nH]c(CSC3CCN(S(=O)(=O)c4ccccn4)CC3)nc12` [Example 175, 8-Methyl-2-(((1-(pyridin-2-ylsulfonyl)piperidin-4-yl)thio)methyl)quinazolin-4(3H)-one] gave a half-inhibitory concentration (IC50) of 1 to 10 µM.

With `O=c1[nH]c(CSC2CCOCC2)nc2cc(NC3CC3)ccc12` [Example 124, 7-(Cyclopropylamino)-2-(((tetrahydro-2H-pyran-4-yl)thio)methyl)quinazolin-4(3H)-one], the concentration for half-maximal inhibition (IC50) is less than 1 µM.

`Cc1cccc2c(=O)[nH]c(CSC3CCN(C(=O)CCN)CC3)nc12` [Example 167, 2-(((1-(3-Aminopropanoyl)piperidin-4-yl)thio)methyl)-8-methylquinazolin-4(3H)-one Hydrochloride] came in with an IC50 of 1 to 10 µM.

`O=c1[nH]c(CSC2CCOCC2)nc2cc(NC3CCCC3(F)F)cc(F)c12` (stereo not shown) [Example 231, 7-((2,2-Difluorocyclopentyl)amino)-5-fluoro-2-(((tetrahydro-2H-pyran-4-yl)thio)methyl)quinazolin-4(3H)-one] showed an IC50 of less than 1 µM.

The values are drawn from patent US10562891B2, “Quinazolinones as PARP14 inhibitors” (Ribon Therapeutics Inc., priority 2017, dated 2020).
